Key:
anti-HBc [1] = experiment: Microparticle chemiluminescence immunoassay for anti-HBc, with cysteine; assay type: binding, human
Experimental: Recombinant DNA hepatitis B core antigen (rHBcAg) was coupled to carboxylated polystyrene latex microparticles (Seragen Diagnostics, Indianapolis, Ind., 0.188 um) using a two-step procedure. First, purified polyclonal human anti-HBc at 2.7 ug/mg latex particles in the presence of normal human serum (1.0 ul/mg) was coupled using 1-ethyl-3-(3-dimethylaminopropyl) carbodiimide (EDAC, 43 ug/mg) in 0.015M MES buffer (2-[N-morpholino] ethanesulfonic acid), pH 4.8, for 2 hours at room temperature. Bangs, "Uniform Latex Particles", Seragen Diagnostics, 1984. The antibody undercoated particles were then washed three times in 0.1M Tris buffer, pH 7.2, containing 0.9% NaCl, 0.03% EDTA and 0.05% Tween-20 by centrifugation (40,000×g for 20 minutes) and resuspended in 0.1M Tris buffer, pH 7.2, containing 0.9% NaCl, 0.03% EDTA and 0.03% bovine serum albumin. rHBcAg (0.2 ug/mg) was then immunologically adsorbed on the undercoated particles by slow rotation overnight at room temperature. Particles were washed three times as before and dispersed through a 25 gauge needle and stored in 0.01M sodium phosphate, pH 7.2, containing 0.15M NaCl, 0.1% bovine serum albumin, 0.01% Tween-20 and 0.1% sodium azide (Microparticle Diluent). Percent solids was determined by light scattering at 500 nanometers. Coated particles were stored concentrated (typically 5-10% solids) and diluted in storage buffer to a working concentration (0.036%) before each assay. In an alternative method, rHBcAg was coupled directly to the microparticles by the EDAC method. The anti-HBc undercoating method is preferred.
Acridinium-labeled purified anti-HBc (human) was prepared using an EDAC coupling procedure on the active ester. Briefly, 1 mg of B-alanine acridinium was dissolved in 100 ul anhydrous DMF and activated by sequential addition of 50 ul N-hydroxylsuccinimide (NHS) (5.75 mg/ml) and 50 ul EDAC (19.2 mg/ml) (molar ratio NHS:EDAC=1:2). The reaction proceeded in the dark at room temperature for 30 minutes. Protein A purified human anti-HBc was dialyzed (3×) against PBS, 0.5% CHAPS, pH 6.3, overnight at 2°-8° C. Activated acridinium was added to dialyzed antibody (30:1 molar excess) and the reaction mixture stirred for 30 minutes at room temperature. After dialysis versus the same buffer, the preparation was centrifuged and the supernatant chromatographed on a Beckman TSK 250 HPLC column equilibrated with the same buffer. Individual fractions (1 ml) were analyzed by UV spectroscopy at 369 and 280 nm to determine incorparation of acridinium (typically 3:1).
100 ul duplicates of samples including a sensitivity panel sample (1.23 Paul Erhlich Units/ml, Panel 7), two samples, S9 and S14, which were similar in anti-HBc reactivity to Group II samples described above, and negative and positive controls were added to a microtiter plate. […] 50 ul of the HBcAg-coated microparticles (0.036% solids) were added to all wells. This reaction mixture was incubated for 20 minutes in a 40° water bath.
166 ul of each reaction mixture was transferred to a microparticle capture/flow-through glass fiber filter funnel (Abbott Laboratories, North Chicago, Ill.) which was prewetted with 50 ul of 0.1% Tween-20. Each capture membrane was then washed twice with 50 ul of 0.1% Tween-20. 20 ul of the acridinium-labeled anti-HBc (375 ng/ml) was added to the surface of each capture membrane and incubated at room temperature for 20 minutes. The capture membranes were then washed twice with 100 ul and once with 50 ul of 0.1% Tween-20.
The membranes were then transferred to a chemiluminescence reader where approximately 100 ul of a trigger solution comprising 0.3% H2 O2 in 0.25N NaOH was delivered to each membrane. The amount of light generated by the acridinium-labelled reagent bound to the microparticles was determined and is inversely proportional to the amount of anti-HBc present in the sample. […] There was a 10-20% signal loss in the negative control in the presence of cysteine. […]

anti-HBc [2] = experiment: Sephacryl S-300 fractions assayed for anti-HBc activity by microparticle assay, with cysteine; assay type: binding
Experimental: Briefly, 2 ml of recalcified Sample 209 was applied to a Sephacryl S-300 column (2.5×50 cm) equilibrated with PBS. 2.5 ml fractions were collected at a flow rate of 20 ml/hr. Fractions were assayed using the microparticle assay of Example 3 except that an approximately 5 fold increase in sensitivity was implemented by using increasing incubation time and decreasing the amount of anti-HBc conjugate. […] The first inhibitory peak was not detected when assayed in the presence of cysteine. The second and major inhibitory peak, which co-eluted with the IgG protein peak, was unaffected by cysteine treatment. The immunoglobulin G associated anti-HBc activity is specific for non-acute hepatitis B infection.
3 ml of a borderline positive sample (Sample 9) was tested according to the procedure of Example 9. […] In the absence of reducing agent, a single inhibitory peak was seen near the void volume of the column. This peak was not detected when assayed in the presence of cysteine, and was clearly resolved form the IgG protein peak. This non-IgG reactivity is not believed to be a result of Hepatitis B infection and is therefore nonspecific.

anti-HBc [3] = experiment: CORAB radioimmunoassay for anti-HBc (competitive), with reducing agent added to the sample; assay type: binding, human; conditions: for inhibition in the Corab assay: presence of metabisulfite
Experimental: 0.1 ml samples in groups I and II were placed in duplicate reaction wells, along with negative and positive controls, and 10 ul of 0.3% 2-mercaptoethanol (2-ME) in H2 O was added to one each of the duplicates, while 10 ul H2 O was added to the other. 0.1 ml of ^125 I-labeled anti-HBc was added to all wells, followed by an HBcAg-coated 1/4 inch polystyrene bead to all wells. Trays were gently shaken and allowed to incubate overnight at room temperature. All beads were washed 3 times with distilled water and transferred to test tubes for counting for 1 minute in a gamma scintillation counter. The positivity or negativity of each was calculated, as was the degree (%) inhibition from negative control for each specimen both with and without reducing reagent according to the formula: [formula] By this calculation, a sample giving a value equal to or greater than 50% is judged as positive in the test. The effect of the addition of the reducing reagents to the specimens was evaluated by several criteria:
Plasma samples designated 25, 31, 76, 91, 177 and 189 were tested with a commercially available anti-HBc kit (Corab®, Abbott Laboratories, North Chicago, Ill.) with and without addition of 10 ul of a reducing agent, 0.5M sodium metabisulfite. Also, as in Example 4, samples were tested with and without addition of 26.3 ul of a positive anti-HBc sample (Panel 5). […] Samples 31 and 91 are discrepant samples which are confirmed as negative upon addition of the reducing agent.

N[C@@H](CS)C(=O)O [cysteine]
COUNTS (anti-HBc [1]; 200 mM cysteine solution (EDTA, DTT), Negative Control): 23992 COUNTS
% I (percent inhibition) (anti-HBc [1]; 200 mM cysteine solution (EDTA, DTT), Panel 7): 76.3%
% I (percent inhibition) (anti-HBc [1]; 200 mM cysteine solution (EDTA, DTT), Plasma S9): 3.2%
% I (percent inhibition) (anti-HBc [1]; 200 mM cysteine solution (EDTA, DTT), Plasma S14): 3.0%
COUNTS (anti-HBc [1]; 200 mM cysteine solution (EDTA, DTT), Positive Control): 5000 COUNTS
<cpm> (anti-HBc [1]; 10 ul 0.75M cysteine fresh, NC): 20856 cpm
% I (percent inhibition) (anti-HBc [1]; 10 ul 0.75M cysteine fresh, NC spiked with Panel 5): 80.8%
<cpm> (anti-HBc [1]; 10 ul 0.75M cysteine fresh, PC): 4035 cpm
% I (percent inhibition) (anti-HBc [1]; 10 ul 0.75M cysteine fresh, Panel 7): 80.7%
average percent inhibition (anti-HBc [1]; 10 ul 0.75M cysteine fresh, plasma samples spiked with Panel 5): 71.5%
% I (percent inhibition) (anti-HBc [1]; 10 ul 0.75M cysteine fresh, sample 52): 6.2%
% I (percent inhibition) (anti-HBc [1]; 10 ul 0.75M cysteine fresh, sample 52 spiked with Panel 5): 67.9%
% I (percent inhibition) (anti-HBc [1]; 10 ul 0.75M cysteine fresh, sample 71): 36.0%
% I (percent inhibition) (anti-HBc [1]; 10 ul 0.75M cysteine fresh, sample 71 spiked with Panel 5): 69.9%
% I (percent inhibition) (anti-HBc [1]; 10 ul 0.75M cysteine fresh, sample 166): 54.0%
% I (percent inhibition) (anti-HBc [1]; 10 ul 0.75M cysteine fresh, sample 166 spiked with Panel 5): 80.8%
% I (percent inhibition) (anti-HBc [1]; 10 ul 0.75M cysteine fresh, sample 189): 11.1%
% I (percent inhibition) (anti-HBc [1]; 10 ul 0.75M cysteine fresh, sample 189 spiked with Panel 5): 70.5%
% I (percent inhibition) (anti-HBc [1]; 10 ul 0.75M cysteine fresh, sample 277): -2.5%
% I (percent inhibition) (anti-HBc [1]; 10 ul 0.75M cysteine fresh, sample 277 spiked with Panel 5): 68.6%
average percent inhibition (anti-HBc [1]; 10 ul 0.75M cysteine fresh, unspiked plasma samples): 21.0%
mean counts (anti-HBc [1]; Example 5, + cysteine reagent, Negative control): 24494 counts
% I (percent inhibition) (anti-HBc [1]; Example 5, + cysteine reagent, Panel 5): 86.7%
% I (percent inhibition) (anti-HBc [1]; Example 5, + cysteine reagent, Panel 6): 85.3%
% I (percent inhibition) (anti-HBc [1]; Example 5, + cysteine reagent, Panel 7): 77.2%
% I (percent inhibition) (anti-HBc [1]; Example 5, + cysteine reagent, Panel 8): 53.5%
% I (percent inhibition) (anti-HBc [1]; Example 5, + cysteine reagent, Panel 9): 21.0%
mean counts (anti-HBc [1]; Example 5, + cysteine reagent, Positive control): 5678 counts
activity (interfering factor) in Group II type samples (anti-HBc [1]; S9 and S14, presence of cysteine): eliminated
signal loss in the negative control (anti-HBc [1]; presence of cysteine): 10-20%
single inhibitory peak near the void volume (anti-HBc [2]; Sample 9, presence of cysteine): not detected
second and major inhibitory peak (co-eluted with IgG) (anti-HBc [2]; Sample 209, cysteine treatment): unaffected
first inhibitory peak (anti-HBc [2]; Sample 209, presence of cysteine): not detected

O=S([O-])S(=O)(=O)[O-].[Na+].[Na+] [MBS, sodium metabisulfite]
<cpm> (anti-HBc [3]; 10 ul 0.5M MBS, NC): 20856 cpm
% I (percent inhibition) (anti-HBc [3]; 10 ul 0.5M MBS, NC spiked with Panel 5): 73.6%
<cpm> (anti-HBc [3]; 10 ul 0.5M MBS, PC): 350 cpm
% I (percent inhibition) (anti-HBc [3]; 10 ul 0.5M MBS, Panel 7): 71.0%
<Sx*> % I (anti-HBc [3]; 10 ul 0.5M MBS, mean of samples spiked with Panel 5): 74.8%
<Sx> % I (anti-HBc [3]; 10 ul 0.5M MBS, mean of unspiked samples): 11.4%
% I (percent inhibition) (anti-HBc [3]; 10 ul 0.5M MBS, sample OBI 25): 7.6%
% I (percent inhibition) (anti-HBc [3]; 10 ul 0.5M MBS, sample OBI 25 spiked with Panel 5): 74.3%
% I (percent inhibition) (anti-HBc [3]; 10 ul 0.5M MBS, sample OBI 31): 10.4%
% I (percent inhibition) (anti-HBc [3]; 10 ul 0.5M MBS, sample OBI 31 spiked with Panel 5): 75.6%
% I (percent inhibition) (anti-HBc [3]; 10 ul 0.5M MBS, sample OBI 76): 5.8%
% I (percent inhibition) (anti-HBc [3]; 10 ul 0.5M MBS, sample OBI 76 spiked with Panel 5): 74.2%
% I (percent inhibition) (anti-HBc [3]; 10 ul 0.5M MBS, sample OBI 91): 10.8%
% I (percent inhibition) (anti-HBc [3]; 10 ul 0.5M MBS, sample OBI 91 spiked with Panel 5): 75.0%
% I (percent inhibition) (anti-HBc [3]; 10 ul 0.5M MBS, sample OBI 177): 31.5%
% I (percent inhibition) (anti-HBc [3]; 10 ul 0.5M MBS, sample OBI 177 spiked with Panel 5): 74.4%
% I (percent inhibition) (anti-HBc [3]; 10 ul 0.5M MBS, sample OBI 189): 2.5%
% I (percent inhibition) (anti-HBc [3]; 10 ul 0.5M MBS, sample OBI 189 spiked with Panel 5): 75.1%
effect on anti-HBc positive samples (anti-HBc [3]; Panel 7 and samples spiked with Panel 5): not affected
absolute values for negative and positive controls (anti-HBc [3]; Table I): not affected significantly
inhibition in the Corab assay (anti-HBc [3]; Sample 9): 5.2%
inhibition in the Corab assay (anti-HBc [3]; Sample 209): 86.3%

— US5681695A, “Method for increasing specificity in competitive immunoassays” (priority 1994, dated 1997)
